In patent publication US9993001B2, “Herbicidal composition” (ISHIHARA SANGYO KAISHA, LTD., priority 2014, dated 2018) one finds inhibition data, which are given here for one compound.

What all share (assay type): in vivo
Assay [1] deals with Nepalese Smartweed (Persicaria nepalensis (Meisn.) H. Gross). Description: Test Example 3: soybean field, soil treatment, metobromuron + S-metolachlor. The following applies: soil, read-out: Growth inhibition rate of Nepalese Smartweed (%) Measured value. The text has this:
(§1) When the herbicidal activity in a case where two active ingredients are combined, is larger than the simple sum of the respective herbicidal activities of the two active ingredients (the expected activity), it is called a synergistic effect. The activity expected by the combination of two active ingredients can be calculated as follows (Colby S. R., “Weed”, vol. 15, p. 20-22, 1967). E=α+β−(α×β[…]) where α: growth inhibition rate when treated with x (g/ha) of herbicide X, • β: growth inhibition rate when treated with y (g/ha) of herbicide Y, • E: growth inhibition rate expected when treated with x (g/ha) of herbicide X and y (g/ha) of herbicide Y.
(§2) On the 19th day after treatment, the state of growth of barnyardgrass was visually observed and evaluated in accordance with the following standards. The growth inhibition rate (%) [measured value] and the growth inhibition rate (%) [calculated value] calculated by the Colby's method, are shown in Table 2.
(§3) Growth inhibition rate (%)=inhibition rate) (%) of 0 (equivalent to the non-treated area) to 100 (complete kill) […]
On the 50th day after treatment, the state of growth of Nepalese Smartweed (Persicaria nepalensis (Meisn.) H. Gross) which occurred naturally, was visually observed and evaluated in the same manner as in Test Example 1.

Assay [2] deals with common lambsquarters (Chenopodium album L.). Description: Test Example 8: corn field, soil treatment, metobromuron + S-metolachlor. The following applies: soil, read-out: Growth inhibition rate of common lambsquarters (%) Measured value.
Excerpt: as §1, §2, §3
On the 28th day after treatment, the state of growth of common lambsquarters (Chenopodium album L.) which occurred naturally, was visually observed and evaluated in the same manner as in Test Example 1.

The subject of assay [3] is black nightshade (Solanum nigrum L.). Description: Test Example 14: pot, soil treatment, metobromuron + pyroxasulfone. The settings on record: soil, read-out: Growth inhibition rate of black nightshade (%) Measured value.
Excerpt: as §1, §2
(§4) Growth inhibition rate (%)=inhibition rate) (%) of 0 (equivalent to the non-treated area) to 100 (complete kill)
Soil was put into a 1/300,000 ha pot, and seeds of black nightshade (Solanum nigrum L.) were sown. Prior to germination of black nightshade, predetermined amounts of SC containing metobromuron as active ingredient (same as in Test Example 1) and WG containing pyroxasulfone as active ingredient (same as in Test Example 13) were diluted with water corresponding to 1,000 L per hectare and applied for soil treatment.
On the 12th day after treatment, the state of growth of black nightshade was visually observed and evaluated in the same manner as in Test Example 1.

Assay [4] has as its system barnyardgrass (Echinochloa crus-galli L.). Briefly: Test Example 15: pot, soil treatment, metobromuron + chlorpropham. The settings on record: soil, read-out: Growth inhibition rate of barnyardgrass (%) Measured value.
Excerpt: as §1, §2, §4
(§5) Soil was put into a 1/300,000 ha pot, and seeds of barnyardgrass (Echinochloa crus-galli L.) were sown. […]
(§6) On the 21st day after treatment, the state of growth of barnyardgrass was visually observed and evaluated in the same manner as in Test Example 1.

In assay [5] the test system is black nightshade (Solanum nigrum L.). Briefly: Test Example 17: pot, soil treatment, metobromuron + chlorpropham. The settings on record: soil, read-out: Growth inhibition rate of black nightshade (%) Measured value.
Excerpt: as §1, §2, §4
Soil was put into a 1/300,000 ha pot, and seeds of barnyardgrass (Echinochloa crus-galli L.) were sown. On the day after seeding, predetermined amounts of SC containing metobromuron as active ingredient (same as in Test Example 1) and EC containing chlorpropham as active ingredient (same as in Test Example 1) were diluted with water corresponding to 1,000 L per hectare and applied for soil treatment.
as §6
The test was carried out in the same manner as in Test Example 15 except that barnyardgrass (Echinochloa crus-galli L.) was changed to black nightshade (Solanum nigrum L.), to obtain the results as shown in Table 18.

For assay [6], the system named is barnyardgrass (Echinochloa crus-galli L.). Description: Test Example 18: pot, soil treatment, metobromuron + chlorpropham. The following applies: soil, read-out: Growth inhibition rate of barnyardgrass (%) Measured value.
Excerpt: as §1, §2, §4, §5
On the 26th day after treatment, the state of growth of barnyardgrass was visually observed and evaluated in the same manner as in Test Example 1.

Assay [7] relates to large crabgrass (Diqitaria sanquinalis L.). Description: Test Example 22: pot, soil treatment, metobromuron + prometryn. The following applies: Digitaria sanguinalis, soil, read-out: Growth inhibition rate of large crabgrass (%) Measured value.
Excerpt: as §1, §2, §4
Soil was put into a 1/300,000 ha pot, and seeds of barnyardgrass (Echinochloa crus-qalli L.) were sown. On the day after seeding, predetermined amounts of SC containing metobromuron as active ingredient (same as in Test Example 1) and WP containing prometryn as active ingredient (trade name: Gesagard 50, manufactured by Nippon Kayaku Co., Ltd.) were diluted with water corresponding to 1,000 L per hectare and applied for soil treatment.
as §6
The test was carried out in the same manner as in Test Example 21 except that barnyardgrass (Echinochloa crus-qalli L.) was changed to large crabgrass (Diqitaria sanquinalis L.), to obtain the results as shown in Table 23.

Assay [8] has as its system black nightshade (Solanum nigrum L.). Briefly: Test Example 23: pot, soil treatment, metobromuron + fluazifop-P-butyl. The settings on record: Solanum nigrum, soil, read-out: Growth inhibition rate of black nightshade (%) Measured value.
Excerpt: as §1, §2, §4
Soil was put into a 1/300,000 ha pot, and seeds of black nightshade (Solanum nigrum L.) were sown. […]
On the 20th day after treatment, the state of growth of black nightshade was visually observed and evaluated in the same manner as in Test Example 1.

The subject of assay [9] is large crabgrass (Digitaria sanquinalis L.). Description: Test Example 29: pot, soil treatment, metobromuron + indanofan. The following applies: soil, read-out: Growth inhibition rate of large crabgrass (%) Measured value.
Excerpt: as §1, §2, §4
Soil was put into a 1/300,000 ha pot, and seeds of large crabgrass (Digitaria sanquinalis L.) were sown. On the day after seeding, predetermined amounts of SC containing metobromuron as active ingredient (same as in Test Example 1) and WP containing indanofan as active ingredient were diluted with water corresponding to 1,000 L per hectare and applied for soil treatment.
On the 20th day after treatment, the state of growth of large crabgrass was visually observed and evaluated in the same manner as in Test Example 1.

Turning to `CON(C)C(=O)Nc1ccc(Br)cc1` [Metobromuron, 3-(4-bromophenyl)-1-methoxy-1-methylurea], the inhibition (in general, how much of the control response was suppressed) at 1500 g/ha in assay [1] was found to be 30%; in assay [4] it was 72%. Besides, the results for the inhibition at 1000 g/ha in [2], in [5] and in [7] were 78%, 78% and 50%, respectively. Also, the inhibition at 375 g/ha in [3] came out at 64%; in assay [9], 50%. The inhibition at 750 g/ha is 83% in assay [3], 33% in assay [7] and 85% in assay [8]. For the same compound, in [6], the inhibition at 188 g/ha was 0%. Moreover, the inhibition at 250 g/ha in assay [9] was 30%. Also, the inhibition at 562.5 g/ha in assay [9] worked out at 80%.
